Results reported in patent US20250270201A1, “SUBSTITUTED PYRIMIDINYL HYDRAZIDE COMPOUND AND PREPARATION METHOD AND USE THEREOF” (ARIGENX THERAPEUTICS CO., LTD., priority 2022, published 2025).

Biological target: T1, AHR (Homo sapiens, UniProt P35869)
T1 construct: A human liver cancer cell line HepG2 endogenously expressing an AHR protein; host or cells: HepG2 stably transfected with a CYP1A1-promoter firefly luciferase reporter
T1 sequence (P35869 11-848): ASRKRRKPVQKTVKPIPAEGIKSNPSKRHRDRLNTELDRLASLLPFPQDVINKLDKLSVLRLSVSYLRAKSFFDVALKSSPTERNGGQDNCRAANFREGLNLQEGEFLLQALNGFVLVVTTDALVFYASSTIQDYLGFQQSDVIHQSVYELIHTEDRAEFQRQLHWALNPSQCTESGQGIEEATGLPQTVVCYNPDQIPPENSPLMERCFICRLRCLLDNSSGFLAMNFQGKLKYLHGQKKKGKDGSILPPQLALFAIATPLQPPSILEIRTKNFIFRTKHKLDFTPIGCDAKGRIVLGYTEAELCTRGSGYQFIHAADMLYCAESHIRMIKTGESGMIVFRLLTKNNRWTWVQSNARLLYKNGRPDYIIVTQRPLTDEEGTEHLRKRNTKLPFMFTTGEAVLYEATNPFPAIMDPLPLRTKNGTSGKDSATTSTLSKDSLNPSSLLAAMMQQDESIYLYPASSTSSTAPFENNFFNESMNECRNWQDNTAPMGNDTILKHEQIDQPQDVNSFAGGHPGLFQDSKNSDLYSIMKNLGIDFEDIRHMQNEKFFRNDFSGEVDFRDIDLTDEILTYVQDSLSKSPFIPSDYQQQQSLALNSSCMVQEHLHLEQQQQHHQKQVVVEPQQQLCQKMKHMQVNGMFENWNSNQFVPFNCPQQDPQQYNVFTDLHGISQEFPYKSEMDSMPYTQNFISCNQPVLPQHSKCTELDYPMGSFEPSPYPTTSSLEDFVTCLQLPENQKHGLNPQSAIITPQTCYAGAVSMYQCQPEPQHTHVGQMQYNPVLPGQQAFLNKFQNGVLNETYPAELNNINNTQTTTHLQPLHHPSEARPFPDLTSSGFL
Assay: Antagonistic effect for AHR in HepG2 cells stably transfected with CYP1A1-promoter firefly luciferase reporter
Format: cell-based
Settings: AHR agonist-stimulated, 24 h compound treatment, average of two replicates
Excerpt: A human liver cancer cell line HepG2 endogenously expressing an AHR protein (provided by the Stem Cell Bank of the Chinese Academy of Sciences) was adopted for testing. The expression of a CYP1A1 gene is regulated by an activity of AHR. After being activated, AHR can bind to a sequence called XRE on a CYP1A1 enhancer and initiate the expression of the CYP1A1 gene. To quantitatively determine an impact of a compound on the activity of AHR, a 1,200 bp (−1,143 to +57) regulatory sequence upstream of a promoter of the CYP1A1 gene was synthesized through gene synthesis and then inserted into a plasmid vector carrying firefly luciferase. The plasmid was then linearized through single enzyme cleavage and then transfected into HepG2 cells through lipofectin transfection (Lipofectamine 3000), and transfected HepG2 cells were screened by puromycin to obtain a stably-expressed cell line. When an antagonistic effect of a compound for AHR was tested, the expression of firefly luciferase was initiated by an AHR agonist (such as L-kynurenine, kynurenic acid, indirubin, TCDD, and 2-(1H-indol-3-ylcarbonyl)-4-thiazolecarboxylic acid methyl ester (ITE)), and cells were treated with the compound at different concentrations. Then, the inhibition on the expression of luciferase by the compound was measured.
Stably-transfected HepG2 cells were sub-cultivated in Minimum Eagle's medium (MEM) at 37° C. and 5% carbon dioxide. In the MEM, 1 mM sodium pyruvate, 2 mM GlutaMax, 1×non- essential amino acids, 10% Australian fetal bovine serum, 100 U/mL penicillin-streptomycin, and 5 μg/mL puromycin were supplemented. Before testing, HepG2 cells were inoculated into a 96-well plate at a density of 5-8×10^4 cells/well and cultivated for 24 h to 48 h to allow a cell confluency of about 90% before a drug treatment (puromycin was not added in a medium). Before the drug treatment, AHR agonist-containing 2×compound solutions at different concentrations were prepared with a same medium, and then a half of a cell culture medium in the 96-well plate was replaced with a 2×compound solution. An AHR agonist solution including only DMSO at a corresponding concentration was set as a negative control group, and CH223191 at a corresponding concentration (commercially available) was set as a positive control group. 2 separate replicate tests were set for each compound (including a positive control and a negative control). 24 h after the compound treatment, HepG2 cells were lysed by a Steady-Glo luciferase detection system of Promega, and a luciferase signal was measured by an InfiniteM1000 Pro microplate reader of Tecan.
In terms of data processing, for each replicate test of each compound, inhibition percentages of a compound at different concentrations on an activity of AHR were calculated sequentially with a signal of a well at a compound concentration of 0 as 100% and a cell signal of an untreated agonist as 0. Corresponding IC50 of a compound was calculated with an average value of data of two replicates according to the formula
tirougn non-nnear ning, where y represents an inhibition percentage and x represents a concentration of a corresponding compound.
IC50 for each compound was shown in Table 2, where A indicates IC50≤500 nM, B indicates 500 nM<IC50≤1.0 μM, C indicates 1 μM<IC50≤5.0 μM, and D indicates IC50>5.0 μM.

| SMILES | IC50 [nM] |
| --- | --- |
| CC(C)N(NC(=O)c1cc(-c2ccc(O)cc2)nc(-c2cccnc2)n1)C(C)CO (centres unmarked) [Compound 51] | 500 to 1000 |
| CCN(NC(=O)c1cc(-c2ccc(C(F)(F)F)cc2)nc(-c2cccc(F)c2)n1)C(C)CO (centres unmarked) [Compound 52] | ≤ 500 |
| CCN(NC(=O)c1cc(-c2ccc(C(F)(F)F)cc2)nc(-c2cccc(C)c2)n1)C(C)CO (centres unmarked) [Compound 53] | 500 to 1000 |
| CCN(NC(=O)c1cc(-c2ccc(Cl)cc2)nc(-c2cccc(F)c2)n1)C(C)CO (centres unmarked) [Compound 54] | ≤ 500 |
| CCN(NC(=O)c1cc(-c2ccc(Cl)cc2)nc(-c2cccc(C)c2)n1)C(C)CO (centres unmarked) [Compound 55] | 500 to 1000 |
| CCN(NC(=O)c1cc(-c2ccc(C(F)(F)F)cc2)nc(-c2cccs2)n1)C(C)CO (centres unmarked) [Compound 56] | ≤ 500 |
| CCN(NC(=O)c1cc(-c2ccc(C(F)(F)F)cc2)nc(-c2cnsc2)n1)C(C)CO (centres unmarked) [Compound 57] | ≤ 500 |
| CC(C)N(NC(=O)c1cc(-c2cccc(F)c2)nc(-c2cccnc2)n1)C(C)CO (centres unmarked) [Compound 58] | 500 to 1000 |
| CC(C)N(NC(=O)c1cc(-c2ccc(F)cc2)nc(-c2cccnc2)n1)C(C)CO (centres unmarked) [Compound 59] | 500 to 1000 |
| CC(C)N(NC(=O)c1cc(-c2ccc(C(F)(F)F)nc2)nc(-c2cccnc2)n1)C(C)CO (centres unmarked) [Compound 60] | 500 to 1000 |
| CC(C)N(NC(=O)c1cc(-c2ccc(C(F)(F)F)cc2)nc(-c2cccc(F)c2)n1)C(C)CO (centres unmarked) [Compound 61] | ≤ 500 |
| Cc1ccc(-c2cc(C(=O)NN(C(C)C)C(C)CO)nc(-c3cccnc3)n2)s1 (centres unmarked) [Compound 62] | 500 to 1000 |
| CC(C)N(NC(=O)c1cc(-c2ccc(N)cc2)nc(-c2cccnc2)n1)C(C)CO (centres unmarked) [Compound 63] | 500 to 1000 |
| CC(C)N(NC(=O)c1cc(-c2ccc(C(F)(F)F)nc2)nc(-c2cccc(F)c2)n1)C(C)CO (centres unmarked) [Compound 65] | 500 to 1000 |
| CC(=O)N(NC(=O)c1cc(-c2ccc(C(F)(F)F)cc2)nc(-c2cccnc2)n1)C(C)C [Compound 66] | ≤ 500 |
| CC(C)N(NC(=O)c1cc(-c2ccc(C(F)(F)F)cc2)nc(-c2cccnc2)n1)S(C)(=O)=O [Compound 67] | ≤ 500 |
| CC(C)N(NC(=O)c1cc(-c2ccc(C(F)(F)F)cc2)nc(-c2cccnc2)n1)C(=O)c1cccnc1 [Compound 68] | ≤ 500 |
